Measurements published in patent publication US10392422B2, “Macrocyclic broad spectrum antibiotics” (priority 2014, dated 2019).
In brackets after ≈: the same amount, converted by molar mass. Where two headings read alike, the source gives them in different places. Blank lines part the entries; values can stand above or below the compound they belong to.

Legend:
Assay in all cases: MIC, broth micro-dilution technique (CLSI)
[1] = system: Escherichia coli MC4100 harboring the IMP4213; type: cell-based; conditions: 35° C., 22 hours; for MIC: Escherichia coli, 22 h, read-out: MIC (μg/mL) E. coli, Table 1 protocol: serial 2-fold dilutions starting from 64 μg/ml
Description: (§1) In vitro antimicrobial activity of each compound was determined by measuring minimal inhibitor concentrations (MICs) using the broth micro-dilution technique as approved by the Clinical and Laboratory Standards Institute (CLSI) (Methods for Dilution Antimicrobial Susceptibility Tests for Bacteria that Grow Aerobically; Approved Standard—Eighth Edition. CLSI document M07-A8. Wayne, Pa.: Clinical and Laboratory Standards; 2009). Antibacterial activity was measured against three strains of bacteria: a Methicillin Resistant Staphylococcus aureus strain USA 300 (NRS384); a MRSA COL (NRS100), another Methicillin Resistant Staphylococcus aureus strain; and a strain of Escherichia coli MC4100 harboring the IMP4213, which results in increased outer-membrane permeability (B Martin and Silhavy T. Imp/OstA is required for cell envelope biogenesis in Escherichia coli. (2002) Molecular Microbiology, 45(5), 1289-1302). Cells were inoculated onto plates of Trypyticase Soy Agar or Luria Agar respectively and grown at 35° C. for 20 hours. Inocula suspensions were prepared by scraping cells into 1 ml of testing media (cation adjusted Mueller Hinton Broth supplemented with 0.002% v/v Tween-80) and diluting to a final OD600 nm of 0.01.
(§2) Test compounds were prepared in DMSO at a concentration of 10 mg/ml. These compound stocks were diluted into testing media at a concentration of 64 μg/ml and serial 2-fold dilutions were made in the same media, in 96-well U bottom microtiter dishes, for a total of 10 compound concentrations (Table 1). In modified protocols (Table 2), compound stocks were diluted into testing media at a concentration of 4 μg/mL and serial 2-fold dilutions were made in the same media, in 96-well U bottom microtiter dishes, for a total of 10 compound concentrations. Inocula suspensions were added to the 2-fold serial dilutions of test compounds to a final density of OD OD600 nm of 0.0005 and incubated at 35° C. for 22 hours. […] The results from the protocol starting from a concentration of 64 µg/mL are listed in Table 1 and the results from the modified protocol are shown in Table 2.

[2] = system: Methicillin Resistant Staphylococcus aureus strain USA 300 (NRS384); type: cell-based; conditions: for MIC: Staphylococcus aureus, 22 h, read-out: MIC (μg/mL) S. aureus
Description: as §1, §2

[3] = system: MRSA COL (NRS100); type: cell-based, Staphylococcus aureus; conditions: for MIC: Staphylococcus aureus, 22 h, read-out: MIC (μg/mL) (COL)
Description: as §1, §2

[4] = Table 1 protocol: serial 2-fold dilutions starting from 64 μg/ml, 35° C., 22 hours

Compound: C[C@@H]1NC(=O)[C@@H](N(C)C(=O)[C@H](CCCCN)NC(=O)c2ccc(-c3ccc(Cl)cc3)cc2)c2ccc(O)c(c2)-c2cc(ccc2O)C[C@@H](C(=O)N[C@@H](C)C(=O)C2CO2)NC1=O (some centres unmarked) [Compound 104]
MIC [1]: 2 µg/mL (≈ 2.34 µM) | MIC [2, 4]: 2.8 µg/mL (≈ 3.28 µM) | MIC [3, 4]: 2 µg/mL (≈ 2.34 µM)

Compound: CC(=O)[C@H](C)NC(=O)[C@@H]1Cc2ccc(O)c(c2)-c2cc(ccc2O)[C@H](N(C)C(=O)[C@H](CCCCN)NC(=O)c2ccc(-c3ccc(Cl)cc3)cc2)C(=O)N[C@@H](C)C(=O)N1 [Compound 109]
MIC [1]: 64 µg/mL (≈ 77.5 µM) | MIC [2]: 4 µg/mL (≈ 4.85 µM) | MIC [3]: 1 µg/mL (≈ 1.21 µM)

Compound: CCCCCCCCCCNCCC(=O)N[C@@H](CCCCN)C(=O)N(C)[C@@H]1C(=O)N[C@@H](C)C(=O)N[C@H](C(=O)O)Cc2ccc(O)c(c2)-c2cc1ccc2O [Compound 110]
MIC [1]: 64 µg/mL (≈ 85 µM) | MIC [2]: 29 µg/mL (≈ 38.5 µM) | MIC [3]: 8 µg/mL (≈ 10.6 µM)

Compound: CCCCCCCCCNCCCC(=O)N[C@@H](CCCCN)C(=O)N(C)[C@@H]1C(=O)N[C@@H](C)C(=O)N[C@H](C(=O)N[C@@H](C)C(C)=O)Cc2ccc(O)c(c2)-c2cc1ccc2O [Compound 111]
MIC [1]: > 64 µg/mL | MIC [2, 4]: 23 µg/mL (≈ 28 µM) | MIC [3, 4]: 4 µg/mL (≈ 4.87 µM)

Compound: CCCCCCCCCCNCC(=O)N[C@@H](CCCCN)C(=O)N(C)[C@@H]1C(=O)N[C@@H](C)C(=O)N[C@H](C(=O)N[C@@H](C)C(C)=O)Cc2ccc(O)c(c2)-c2cc1ccc2O [Compound 112]
MIC (μg/mL) E. coli ([1]; Table 1 protocol: serial 2-fold dilutions starting from 64 μg/ml): 64 µg/mL (≈ 79.2 µM) | MIC (μg/mL) S. aureus [2, 4]: 2.8 µg/mL (≈ 3.47 µM) | MIC (μg/mL) (COL) [3, 4]: 0.5 µg/mL (≈ 0.619 µM)

Compound: CCCCCCCCCCNCCC(=O)N[C@@H](CCCCN)C(=O)N(C)[C@@H]1C(=O)N[C@@H](C)C(=O)N[C@H](C(=O)O)Cc2ccc(O)c(c2)-c2cc1ccc2OCCN [Compound 113]
MIC [1]: 25 µg/mL (≈ 31.4 µM) | MIC [2]: 9.5 µg/mL (≈ 11.9 µM) | MIC [3]: 2 µg/mL (≈ 2.51 µM)

Compound: CCCCCCCCCCNCCC(=O)N[C@@H](CCCCN)C(=O)N(C)[C@@H]1C(=O)N[C@@H](C)C(=O)N[C@H](C(=O)N[C@@H](C)C(C)=O)Cc2ccc(O)c(c2)-c2cc1ccc2O [Compound 114]
MIC [1]: 32 µg/mL (≈ 38.9 µM) | MIC [2]: > 64 µg/mL | MIC [3]: 1 µg/mL (≈ 1.22 µM)

Compound: CCCCCCCCCCNCCC(=O)N[C@@H](CCCCN)C(=O)N(C)[C@@H]1C(=O)N[C@@H](C)C(=O)N[C@H](C(=O)N[C@@H](C)C(=O)COC(C)=O)Cc2ccc(O)c(c2)-c2cc1ccc2OCCN [Compound 116]
MIC [1]: 13 µg/mL (≈ 14.1 µM) | MIC [2]: 0.35 µg/mL (≈ 0.379 µM) | MIC [3]: 0.063 µg/mL (≈ 0.0682 µM)

Compound: CC(=O)OCC(=O)[C@H](C)NC(=O)[C@@H]1Cc2ccc(O)c(c2)-c2cc(ccc2OCCN)[C@H](N(C)C(=O)[C@H](CCCCN)NC(=O)c2ccc(-c3ccc(Cl)cc3)cc2)C(=O)N[C@@H](C)C(=O)N1 [Compound 117]
MIC [1]: 1.6 µg/mL (≈ 1.73 µM) | MIC [2]: 0.71 µg/mL (≈ 0.766 µM) | MIC [3]: 0.22 µg/mL (≈ 0.237 µM)

Compound: C[C@H](NC(=O)[C@@H]1Cc2ccc(O)c(c2)-c2cc(ccc2OCCN)[C@H](N(C)C(=O)[C@H](CCCCN)NC(=O)c2ccc(-c3ccc(Cl)cc3)cc2)C(=O)N[C@@H](C)C(=O)N1)C(=O)CO [Compound 118]
MIC [1]: 2 µg/mL (≈ 2.26 µM) | MIC [2]: 1 µg/mL (≈ 1.13 µM) | MIC [3]: 0.63 µg/mL (≈ 0.712 µM)

Compound: CC(=O)[C@H](C)NC(=O)[C@@H]1Cc2ccc(O)c(c2)-c2cc(ccc2OCCN)[C@H](N(C)C(=O)[C@H](CCCCN)NC(=O)c2ccc(-c3ccc(Cl)cc3)cc2)C(=O)N[C@@H](C)C(=O)N1 [Compound 119]
MIC [1]: 5.3 µg/mL (≈ 6.1 µM) | MIC [2]: 1 µg/mL (≈ 1.15 µM) | MIC [3]: 0.5 µg/mL (≈ 0.576 µM)

Compound: CC(=O)[C@H](C)NC(=O)[C@@H]1Cc2ccc(O)c(c2)-c2cc(ccc2OCC(=O)O)[C@H](N(C)C(=O)[C@H](CCCCN)NC(=O)c2ccc(-c3ccc(Cl)cc3)cc2)C(=O)N[C@@H](C)C(=O)N1 [Compound 120]
MIC [1]: 64 µg/mL (≈ 72.4 µM) | MIC [2]: 51 µg/mL (≈ 57.7 µM) | MIC [3]: 13 µg/mL (≈ 14.7 µM)

Compound: CC(=O)[C@H](C)NC(=O)[C@@H]1Cc2ccc(O)c(c2)-c2cc(ccc2OCCO)[C@H](N(C)C(=O)[C@H](CCCCN)NC(=O)c2ccc(-c3ccc(Cl)cc3)cc2)C(=O)N[C@@H](C)C(=O)N1 [Compound 121]
MIC [1]: 32 µg/mL (≈ 36.8 µM) | MIC [2]: 8 µg/mL (≈ 9.2 µM) | MIC [3]: 3 µg/mL (≈ 3.45 µM)

Compound: C[C@H](NC(=O)[C@@H]1Cc2ccc(O)c(c2)-c2cc(ccc2O)[C@H](N(C)C(=O)[C@H](CCCCN)NC(=O)c2ccc(-c3ccc(Cl)cc3)cc2)C(=O)N[C@@H](C)C(=O)N1)C(=O)CO [Compound 124]
MIC [1]: 16 µg/mL (≈ 19 µM) | MIC [2]: 1 µg/mL (≈ 1.19 µM) | MIC [3]: 0.5 µg/mL (≈ 0.594 µM)

Compound: C[C@H](NCC(=O)[C@H](C)NC(=O)[C@@H]1Cc2ccc(O)c(c2)-c2cc(ccc2O)[C@H](N(C)C(=O)[C@H](CCCCN)NC(=O)c2ccc(-c3ccc(Cl)cc3)cc2)C(=O)N[C@@H](C)C(=O)N1)C(N)=O [Compound 125]
MIC [2]: 32 µg/mL (≈ 35.1 µM) | MIC [3]: 8 µg/mL (≈ 8.78 µM)

Compound: C[C@H](NC(=O)[C@@H]1Cc2ccc(O)c(c2)-c2cc(ccc2O)[C@H](N(C)C(=O)[C@H](CCCCN)NC(=O)c2ccc(-c3ccc(Cl)cc3)cc2)C(=O)N[C@@H](C)C(=O)N1)C(=O)/C=C/c1cc[nH]n1 [Compound 129]
MIC [1]: > 64 µg/mL | MIC [2, 4]: 16 µg/mL (≈ 17.7 µM) | MIC [3, 4]: 4 µg/mL (≈ 4.43 µM)

Compound: CCOC(=O)CCC(=O)[C@H](C)NC(=O)[C@@H]1Cc2ccc(O)c(c2)-c2cc(ccc2O)[C@H](N(C)C(=O)[C@H](CCCCN)NC(=O)c2ccc(-c3ccc(Cl)cc3)cc2)C(=O)N[C@@H](C)C(=O)N1 [Compound 146]
MIC [2]: 16 µg/mL (≈ 17.6 µM) | MIC [3]: 8 µg/mL (≈ 8.78 µM)

Compound: C[C@H](NC(=O)[C@@H]1Cc2ccc(O)c(c2)-c2cc(ccc2O)[C@H](N(C)C(=O)[C@H](CCCCN)NC(=O)c2ccc(-c3ccc(Cl)cc3)cc2)C(=O)N[C@@H](C)C(=O)N1)C(=O)CCC(N)=O [Compound 148]
MIC [2]: 64 µg/mL (≈ 72.5 µM) | MIC [3]: 32 µg/mL (≈ 36.3 µM)

Compound: C[C@@H]1NC(=O)[C@@H](N(C)C(=O)[C@H](CCCCN)NC(=O)c2ccc(-c3ccc(Cl)cc3)cc2)c2ccc(O)c(c2)-c2cc(ccc2O)C[C@@H](C(=O)N[C@@H](C)C(=O)N2CC(F)(F)C[C@H]2C(N)=O)NC1=O [Compound 174]
MIC [1]: 64 µg/mL (≈ 66.7 µM) | MIC [2, 4]: 9.5 µg/mL (≈ 9.9 µM)

MIC [2, 4]: 32 µg/mL (≈ 32.6 µM) | MIC [3, 4]: 16 µg/mL (≈ 16.3 µM)
Compound: C[C@@H]1NC(=O)[C@@H](N(C)C(=O)[C@H](CCCCN)NC(=O)c2ccc(-c3ccc(Cl)cc3)cc2)c2ccc(O)c(c2)-c2cc(ccc2O)C[C@@H](C(=O)N[C@@H](C)C(=O)N2CCC[C@H]2C(=O)NCC(N)=O)NC1=O [Compound 178]

Compound: C[C@@H]1NC(=O)[C@@H](N(C)C(=O)[C@H](CCCCN)NC(=O)c2ccc(-c3ccc(Cl)cc3)cc2)c2ccc(O)c(c2)-c2cc(ccc2O)C[C@@H](C(=O)NCC(=O)N2CC[C@H](O)[C@H]2C(N)=O)NC1=O [Compound 180]
MIC [1]: 64 µg/mL (≈ 69.2 µM) | MIC [2, 4]: 64 µg/mL (≈ 69.2 µM)

Compound: CC[C@H](NC(=O)[C@@H]1Cc2ccc(O)c(c2)-c2cc(ccc2O)[C@H](N(C)C(=O)[C@H](CCCCN)NC(=O)c2ccc(-c3ccc(Cl)cc3)cc2)C(=O)N[C@@H](C)C(=O)N1)C(=O)N1CCC[C@H]1C(N)=O [Compound 181]
MIC [1]: 64 µg/mL (≈ 68.3 µM) | MIC [2, 4]: 23 µg/mL (≈ 24.5 µM)

Compound: CONC(=O)[C@@H]1CCCN1C(=O)[C@H](C)NC(=O)[C@@H]1Cc2ccc(O)c(c2)-c2cc(ccc2O)[C@H](N(C)C(=O)[C@H](CCCCN)NC(=O)c2ccc(-c3ccc(Cl)cc3)cc2)C(=O)N[C@@H](C)C(=O)N1 [Compound 185]
MIC [1]: 64 µg/mL (≈ 67.1 µM) | MIC [2]: 45 µg/mL (≈ 47.2 µM)

MIC [2, 4]: 23 µg/mL (≈ 24.5 µM) | MIC [3, 4]: 8 µg/mL (≈ 8.52 µM)
Compound: CC(=O)[C@H](C)NC(=O)[C@@H]1Cc2ccc(O)c(c2)-c2cc(ccc2OCCN2CCOCC2)[C@H](N(C)C(=O)[C@H](CCCCN)NC(=O)c2ccc(-c3ccc(Cl)cc3)cc2)C(=O)N[C@@H](C)C(=O)N1 [Compound 203]

Compound: CCCCCCCCCCCCCC(=O)N[C@@H](CCN)C(=O)N(C)[C@@H]1C(=O)N[C@@H](C)C(=O)N[C@H](C(=O)O)Cc2ccc(OCCN)c(c2)-c2cc1ccc2OCCN [Compound 299]
MIC [2]: 0.19 µg/mL (≈ 0.235 µM) | MIC [3]: 0.031 µg/mL (≈ 0.0383 µM)
